We go through 13 molecules from US20250163104A1, “MACROCYCLIC IMMUNOMODULATORS” (priority 2021, published 2025).

SMILES strings stand for the structures. *1 amine or outer side, *2 acyl side, *3 side chain or, on linkers, in order; H or OH if unused. Where a SMILES comes first, the peptide text is derived from it. Bridges are numbered along the chain shown (N, C = ends). [ ]: non-standard residue; d: D form. The star is where a group is joined. ξ: configuration not given here. Phe(4-COOH) = N[C@@H](Cc1ccc(C(=O)O)cc1)C(=O)O; Bip = N[C@@H](Cc1ccc(-c2ccccc2)cc1)C(=O)O; Phe(3-Me) = Cc1cccc(C[C@H](N)C(=O)O)c1; βAsp = O=C(O)[C@H](CC(=O)[*:2])N[*:1]; 4Pal = N[C@@H](Cc1ccncc1)C(=O)O; Cha = N[C@@H](CC1CCCCC1)C(=O)O; Cit = NC(=O)NCCC[C@H](N)C(=O)O; Carboxymethyl = O=C(O)C*; Orn = NCCC[C@H](N)C(=O)O; Pra = C#CC[C@H](N)C(=O)O; Dab = NCC[C@H](N)C(=O)O; Dap = NC[C@H](N)C(=O)O; ξPra = C#CCC(N)C(=O)O

The IC50 is the point on the concentration scale where inhibition reaches its midpoint.

T1 sequence (Q15116 25-288): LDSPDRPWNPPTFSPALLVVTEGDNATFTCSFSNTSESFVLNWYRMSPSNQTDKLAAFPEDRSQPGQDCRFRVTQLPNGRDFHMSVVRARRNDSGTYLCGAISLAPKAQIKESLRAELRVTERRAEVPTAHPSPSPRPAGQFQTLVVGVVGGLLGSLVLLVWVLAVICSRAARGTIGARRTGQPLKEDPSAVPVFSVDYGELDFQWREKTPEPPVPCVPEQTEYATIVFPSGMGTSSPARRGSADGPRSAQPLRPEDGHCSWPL

This assay addresses T1, human PD-1 / PD-L1-Ig binding on Jurkat cell line over-expressing human PD-1 (Jurkat-PD-1) (Homo sapiens, UniProt Q15116).
T1 construct: expressed in transfected cells; host or cells: Jurkat
Briefly: Jurkat-PD-1 Cell Binding High-Content Screening Assay (CBA). Type of assay: cell-based. Conditions: Jurkat-PD-1 cells, PE-labeled PD-L1-Ig 20 nM final; read-out: Jurkat HPD1_PDL1 IC50. The essentials: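 Jurkat-hPD-1 cells in DMEM with 10% fetal calf serum receive test compound and are held at 37° C for 2 h. PE-labeled PD-L1-Ig is added at 20 nM final and left for 1 hour. Cells are then fixed and Hoechst-stained, and binding is measured by imaging.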
For `C#CCC(NC(=O)[C@H](CN)NC(=O)[C@@H]1CSCC(=O)N[C@@H](Cc2ccncc2)C(=O)N[C@@H](Cc2ccc(OCC(=O)O)cc2)C(=O)N[C@@H](CC(=O)O)C(=O)N[C@@H](Cc2c[nH]c3ccccc23)C(=O)N[C@@H](C(C)C)C(=O)N[C@@H](Cc2ccc(-c3ccccc3)cc2)C(=O)N[C@@H]([C@@H](C)CC)C(=O)N[C@@H](CCCN)C(=O)N[C@H](CC(C)C)C(=O)N[C@@H](CCN)C(=O)N[C@@H](CC(C)C)C(=O)N[C@@H](C(C)C)C(=O)N[C@@H]([C@@H](C)O)C(=O)N1)C(N)=O` (stereo partly drawn) [Compound 1758] ({CH2CO}-[4Pal]Y(Carboxymethyl)DWV[Bip]I[Orn][dL][Dab]LVTC[Dap][ξPra]-NH2; thioether N-14), the IC50 amounted to 0.0075 µM. As to `C#CCC(NC(=O)[C@H](CCN)NC(=O)[C@@H]1CSCC(=O)N[C@@H](Cc2ccncc2)C(=O)N[C@@H](Cc2ccc(OCC(=O)O)cc2)C(=O)N[C@@H](CC(=O)O)C(=O)N[C@@H](Cc2c[nH]c3ccccc23)C(=O)N[C@@H](C(C)C)C(=O)N[C@@H](Cc2ccc(-c3ccccc3)cc2)C(=O)N[C@@H]([C@@H](C)CC)C(=O)N[C@@H](CCCN)C(=O)N[C@H](CC(C)C)C(=O)N[C@@H](CCN)C(=O)N[C@@H](CC(C)C)C(=O)N[C@@H](C(C)C)C(=O)N[C@@H]([C@@H](C)O)C(=O)N1)C(N)=O` (stereo partly drawn) [Compound 1759] ({CH2CO}-[4Pal]Y(Carboxymethyl)DWV[Bip]I[Orn][dL][Dab]LVTC[Dab][ξPra]-NH2; thioether N-14), the IC50 was determined as 0.0072 µM. In the case of `C#CCC(NC(=O)[C@H](CCCN)NC(=O)[C@@H]1CSCC(=O)N[C@@H](Cc2ccncc2)C(=O)N[C@@H](Cc2ccc(OCC(=O)O)cc2)C(=O)N[C@@H](CC(=O)O)C(=O)N[C@@H](Cc2c[nH]c3ccccc23)C(=O)N[C@@H](C(C)C)C(=O)N[C@@H](Cc2ccc(-c3ccccc3)cc2)C(=O)N[C@@H]([C@@H](C)CC)C(=O)N[C@@H](CCCN)C(=O)N[C@H](CC(C)C)C(=O)N[C@@H](CCN)C(=O)N[C@@H](CC(C)C)C(=O)N[C@@H](C(C)C)C(=O)N[C@@H]([C@@H](C)O)C(=O)N1)C(N)=O` (stereo partly drawn) [Compound 1760] ({CH2CO}-[4Pal]Y(Carboxymethyl)DWV[Bip]I[Orn][dL][Dab]LVTC[Orn][ξPra]-NH2; thioether N-14), the IC50 was found to be 0.0396 µM. For `C#CCC(NC(=O)[C@H](CCCCN)NC(=O)[C@@H]1CSCC(=O)N[C@@H](Cc2ccncc2)C(=O)N[C@@H](Cc2ccc(OCC(=O)O)cc2)C(=O)N[C@@H](CC(=O)O)C(=O)N[C@@H](Cc2c[nH]c3ccccc23)C(=O)N[C@@H](C(C)C)C(=O)N[C@@H](Cc2ccc(-c3ccccc3)cc2)C(=O)N[C@@H]([C@@H](C)CC)C(=O)N[C@@H](CCCN)C(=O)N[C@H](CC(C)C)C(=O)N[C@@H](CCN)C(=O)N[C@@H](CC(C)C)C(=O)N[C@@H](C(C)C)C(=O)N[C@@H]([C@@H](C)O)C(=O)N1)C(N)=O` (stereo partly drawn) [Compound 1761] ({CH2CO}-[4Pal]Y(Carboxymethyl)DWV[Bip]I[Orn][dL][Dab]LVTCK[ξPra]-NH2; thioether N-14), the IC50 turned out to be 0.0139 µM. With `C#CCC(NC(=O)[C@H](CCCNC(=N)N)NC(=O)[C@@H]1CSCC(=O)N[C@@H](Cc2ccncc2)C(=O)N[C@@H](Cc2ccc(OCC(=O)O)cc2)C(=O)N[C@@H](CC(=O)O)C(=O)N[C@@H](Cc2c[nH]c3ccccc23)C(=O)N[C@@H](C(C)C)C(=O)N[C@@H](Cc2ccc(-c3ccccc3)cc2)C(=O)N[C@@H]([C@@H](C)CC)C(=O)N[C@@H](CCCN)C(=O)N[C@H](CC(C)C)C(=O)N[C@@H](CCN)C(=O)N[C@@H](CC(C)C)C(=O)N[C@@H](C(C)C)C(=O)N[C@@H]([C@@H](C)O)C(=O)N1)C(N)=O` (stereo partly drawn) [Compound 1762] ({CH2CO}-[4Pal]Y(Carboxymethyl)DWV[Bip]I[Orn][dL][Dab]LVTCR[ξPra]-NH2; thioether N-14), the IC50 came to 0.0205 µM. With `C#CCC(NC(=O)[C@H](Cc1cnc[nH]1)NC(=O)[C@@H]1CSCC(=O)N[C@@H](Cc2ccncc2)C(=O)N[C@@H](Cc2ccc(OCC(=O)O)cc2)C(=O)N[C@@H](CC(=O)O)C(=O)N[C@@H](Cc2c[nH]c3ccccc23)C(=O)N[C@@H](C(C)C)C(=O)N[C@@H](Cc2ccc(-c3ccccc3)cc2)C(=O)N[C@@H]([C@@H](C)CC)C(=O)N[C@@H](CCCN)C(=O)N[C@H](CC(C)C)C(=O)N[C@@H](CCN)C(=O)N[C@@H](CC(C)C)C(=O)N[C@@H](C(C)C)C(=O)N[C@@H]([C@@H](C)O)C(=O)N1)C(N)=O` (stereo partly drawn) [Compound 1763] ({CH2CO}-[4Pal]Y(Carboxymethyl)DWV[Bip]I[Orn][dL][Dab]LVTCH[ξPra]-NH2; thioether N-14), the IC50 came to 0.024 µM. With `C#CCC(NC(=O)[C@H](CN)NC(=O)[C@@H]1CSCC(=O)N[C@@H](Cc2ccncc2)C(=O)N[C@@H](Cc2ccc(OCC(=O)O)cc2)C(=O)N[C@@H](CC(=O)O)C(=O)N[C@@H](Cc2c[nH]c3ccccc23)C(=O)N[C@@H](C(C)C)C(=O)N[C@@H](Cc2ccc(-c3ccccc3)cc2)C(=O)N[C@@H]([C@@H](C)CC)C(=O)N[C@@H](CCCN)C(=O)N[C@H](CC(C)C)C(=O)N[C@@H](CCN)C(=O)N[C@@H](CC(C)C)C(=O)N[C@@H](C(C)C)C(=O)N[C@@H]([C@@H](C)O)C(=O)N1)C(N)=O` (stereo partly drawn) [Compound 1764] ({CH2CO}-[4Pal]Y(Carboxymethyl)DWV[Bip]I[Orn][dL][Dab]LVTC[Dap][ξPra]-NH2; thioether N-14), the IC50 turned out to be 0.0331 µM. On to `C#CCC(NC(=O)[C@H](CCN)NC(=O)[C@@H]1CSCC(=O)N[C@@H](Cc2ccncc2)C(=O)N[C@@H](Cc2ccc(OCC(=O)O)cc2)C(=O)N[C@@H](CC(=O)O)C(=O)N[C@@H](Cc2c[nH]c3ccccc23)C(=O)N[C@@H](C(C)C)C(=O)N[C@@H](Cc2ccc(-c3ccccc3)cc2)C(=O)N[C@@H]([C@@H](C)CC)C(=O)N[C@@H](CCCN)C(=O)N[C@H](CC(C)C)C(=O)N[C@@H](CCN)C(=O)N[C@@H](CC(C)C)C(=O)N[C@@H](C(C)C)C(=O)N[C@@H]([C@@H](C)O)C(=O)N1)C(N)=O` (stereo partly drawn) [Compound 1765] ({CH2CO}-[4Pal]Y(Carboxymethyl)DWV[Bip]I[Orn][dL][Dab]LVTC[Dab][ξPra]-NH2; thioether N-14), for which the IC50 was 0.0214 µM.

Consider `C#CCC(NC(=O)[C@H](CCCN)NC(=O)[C@@H]1CSCC(=O)N[C@@H](Cc2ccncc2)C(=O)N[C@@H](Cc2ccc(OCC(=O)O)cc2)C(=O)N[C@@H](CC(=O)O)C(=O)N[C@@H](Cc2c[nH]c3ccccc23)C(=O)N[C@@H](C(C)C)C(=O)N[C@@H](Cc2ccc(-c3ccccc3)cc2)C(=O)N[C@@H]([C@@H](C)CC)C(=O)N[C@@H](CCCN)C(=O)N[C@H](CC(C)C)C(=O)N[C@@H](CCN)C(=O)N[C@@H](CC(C)C)C(=O)N[C@@H](C(C)C)C(=O)N[C@@H]([C@@H](C)O)C(=O)N1)C(N)=O` (stereo partly drawn) [Compound 1766] ({CH2CO}-[4Pal]Y(Carboxymethyl)DWV[Bip]I[Orn][dL][Dab]LVTC[Orn][ξPra]-NH2; thioether N-14), for which the IC50 was determined as 0.0314 µM. With `C#CCC(NC(=O)[C@H](CCCCN)NC(=O)[C@@H]1CSCC(=O)N[C@@H](Cc2ccncc2)C(=O)N[C@@H](Cc2ccc(OCC(=O)O)cc2)C(=O)N[C@@H](CC(=O)O)C(=O)N[C@@H](Cc2c[nH]c3ccccc23)C(=O)N[C@@H](C(C)C)C(=O)N[C@@H](Cc2ccc(-c3ccccc3)cc2)C(=O)N[C@@H]([C@@H](C)CC)C(=O)N[C@@H](CCCN)C(=O)N[C@H](CC(C)C)C(=O)N[C@@H](CCN)C(=O)N[C@@H](CC(C)C)C(=O)N[C@@H](C(C)C)C(=O)N[C@@H]([C@@H](C)O)C(=O)N1)C(N)=O` (stereo partly drawn) [Compound 1767] ({CH2CO}-[4Pal]Y(Carboxymethyl)DWV[Bip]I[Orn][dL][Dab]LVTCK[ξPra]-NH2; thioether N-14), the IC50 is 0.0167 µM. For `C#CC[C@H](NC(=O)C[C@H](NC(=O)[C@H](CCN)NC(=O)[C@@H]1CSCC(=O)N[C@@H](Cc2ccc(OCC(=O)O)cc2)C(=O)N[C@@H](Cc2ccncc2)C(=O)N[C@@H](CC(=O)O)C(=O)N[C@@H](Cc2cccc(C)c2)C(=O)N[C@@H](C(C)C)C(=O)N[C@@H](Cc2ccc(-c3ccccc3)cc2)C(=O)N[C@@H](CCCNC(N)=O)C(=O)N[C@@H](CCCN)C(=O)N[C@H](CC(C)C)C(=O)N[C@@H](CCN)C(=O)N[C@@H](CC2CCCCC2)C(=O)N[C@@H](C(C)C)C(=O)N[C@@H]([C@@H](C)O)C(=O)N1)C(=O)O)C(N)=O` [Compound 1768] ({CH2CO}-Y(Carboxymethyl)[4Pal]D[Phe(3-Me)]V[Bip][Cit][Orn][dL][Dab][Cha]VTC[Dab][βAsp][Pra]-NH2; thioether N-14), the IC50 was determined as 0.0101 µM. Then `C#CC[C@H](NC(=O)C[C@H](NC(=O)[C@H](CCN)NC(=O)[C@@H]1CSCC(=O)N[C@@H](Cc2ccncc2)C(=O)N[C@@H](Cc2ccc(C(=O)O)cc2)C(=O)N[C@@H](CC(=O)O)C(=O)N[C@@H](Cc2c[nH]c3ccccc23)C(=O)N[C@@H](C(C)C)C(=O)N[C@@H](Cc2ccc(-c3ccccc3)cc2)C(=O)N[C@@H]([C@@H](C)CC)C(=O)N[C@@H](CCCN)C(=O)N[C@H](CC(C)C)C(=O)N[C@@H](CCN)C(=O)N[C@@H](CC(C)C)C(=O)N[C@@H](C(C)C)C(=O)N[C@@H]([C@@H](C)O)C(=O)N1)C(=O)O)C(=O)O` [Compound 1770] ({CH2CO}-[4Pal][Phe(4-COOH)]DWV[Bip]I[Orn][dL][Dab]LVTC[Dab][βAsp][Pra]-OH; thioether N-14), with 0.0689 µM; and `Cc1cccc(C[C@@H]2NC(=O)[C@H](CC(=O)O)NC(=O)[C@H](Cc3ccc(OCC(=O)O)cc3)NC(=O)[C@H](CN)NC(=O)CSC[C@@H](C(N)=O)NC(=O)[C@H]([C@@H](C)O)NC(=O)[C@H](C(C)C)NC(=O)[C@H](CC3CCCCC3)NC(=O)[C@H](CCC(=O)O)NC(=O)[C@@H](CC(C)C)NC(=O)[C@H](CCCN)NC(=O)[C@H](Cc3ccc(OCC(=O)O)cc3)NC(=O)[C@H](Cc3ccc(-c4ccccc4)cc3)NC(=O)[C@H](Cc3ccc(OCC(=O)O)cc3)NC2=O)c1` [Compound 1775] ({CH2CO}-[Dap]Y(Carboxymethyl)D[Phe(3-Me)]Y(Carboxymethyl)[Bip]Y(Carboxymethyl)[Orn][dL]E[Cha]VTC-NH2; thioether N-14), with 0.0205 µM.
